# From US20190071490A1, “Preventing Post-Ictal Headaches” (Beth Israel Deaconess Medical Center, Inc., priority 2017, published 2019)
# System: skin blood flow after saphenous nerve stimulation (CGRP release)
# Test: Skin vasodilatation induced by stimulation of rat saphenous nerve
# Type: in vivo
# Conditions: 400 nmol/kg i.v., 3-5 minutes before stimulation, vs control
# Description: To test antagonist activity of anti-CGRP antibodies, effect of the antibodies on skin vasodilatation by stimulation of rat saphenous nerve was tested using a rat model described previously. Escott et al., Br. J. Pharmacol. 110:772-776, 1993. In this rat model, electrical stimulation of saphenous nerve induces release of CGRP from nerve endings, resulting in an increase in skin blood flow. Blood flow in the foot skin of male Sprague Dawley rats (170-300 g, from Charles River Hollister) was measured after saphenous nerve stimulation. Rats were maintained under anesthesia with 2% isoflurane. Bretylium tosylate (30 mg/kg, administered i.v.) was given at the beginning of the experiment to minimize vasoconstriction due to the concomitant stimulation of sympathetic fibers of the saphenous nerve. […]
# For experiments shown in FIGS. 2A and 2B, antibody 4901 (25 mg/kg), antibody 7D11 (25 mg/kg), or vehicle control (PBS with 0.01% Tween 20) was administered intraperitoneally (IP) 72 hours before the electrical pulse stimulation. […] Skin blood flow, measured as blood cell flux, was monitored with a laser Doppler flow meter. […]
# For experiments shown in FIGS. 4A and 4B, saphenous nerve was exposed surgically before antibody administration. […] Skin blood flow, measured as blood cell flux, was monitored with a laser Doppler flow meter. […]
substance,measurement,value
CGRP 8-37: Positive control compound CGRP 8-37 (vasodilatation antagonist),blood flow increase stimulated by electronic pulses on saphenous nerve (AUC of blood cell flux),inhibited
